Laboratory results as given in paper PMC7582905, “Effect of Disulfide Cyclization of Ultrashort Cationic Lipopeptides on Antimicrobial Activity and Cytotoxicity” (International Journal of Molecular Sciences, 2020).
Converted amounts (≈) assume the structure as drawn. Where a SMILES comes first, the peptide text is derived from it. Bridges are numbered along the chain shown (N, C = ends). The star is where a group is joined. Palmitoyl = CCCCCCCCCCCCCCCC(=O)*

Legend:
Type in all cases: cell-based
[1] = test system: human red blood cells (hRBCs); test: Hemolysis assay; details: peptide concentration causing 50% hemolysis; 4% (v/v) hRBCs in PBS, 1 h, 37 °C, absorbance 540 nm, triplicate
Method: The hemolysis assay was performed by using the method reported previously. Fresh human red blood cells (hRBCs) with anticoagulant (EDTA) were rinsed three times with a PBS by centrifugation at 800× g for 10 min and diluted with PBS. The lipopeptides were serially diluted on a 96-well microtiter polystyrene plate and hRBCs were added up to a final volume of 100 μL. The peptide concentration ranged between 0.5 and 256 μg/mL and the final hRBCs concentration was 4% (v/v). Controls for zero hemolysis (blank) and 100% hemolysis consisted of hRBCs suspended in PBS and 1% of Triton-X 100, respectively. The plate was incubated for 1 h at 37 °C and then centrifuged (800× g, 10 min, 4 °C). Subsequently, the supernatant was […] to new microtiter plates and the absorbance at 540 nm was measured. All experiments were conducted in triplicate. HC50 was calculated using an ic50.tk tool. Protocol of the study received approval from the local Bioethics Committee at the Medical University of Gdańsk (NKBBN/262/2019, approval date: 10 June 2019).

[2] = test system: Candida tropicalis PCM 2709-FY; details: PCM 2709-FY, 24 h
Procedure, shortened: (§1)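 Visual growth inhibition defines the MIC here, read after 37 °C incubation of 18 h (E. coli, Mueller–Hinton broth, 5 × 10^5 CFU/mL) or 24 h (Candida spp., RPMI-1640 with 2% D-glucose, 2 × 10^3 CFU/mL). Test range was 0.5–256 μg/mL lipopeptide.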

[3] = test system: Staphylococcus epidermidis ATCC 14990; details: ATCC 14990, 18 h
Procedure, shortened: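 MIC = lowest lipopeptide concentration (range 0.5–256 μg/mL) with no noticeable growth, scored by eye. Bacteria tested in MHB at 5 × 10^5 CFU/mL for 18 h; Candida in RPMI-1640 + 2% D-glucose at 2 × 10^3 CFU/mL for 24 h; both at 37 °C.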

[4] = test system: Candida albicans ATCC 10231; details: ATCC 10231, 24 h
Procedure, shortened: as §1

[5] = test system: Candida tropicalis PCM 2709-FY; details: PCM 2709-FY, 24 h; remark: listed apart in the source
Method: (§2) The Staphylococcus aureus ATCC 25923, Staphylococcus epidermidis ATCC 14990, Escherichia coli ATCC 25922, Pseudomonas aeruginosa ATCC 9027, Candida albicans ATCC 10231, Candida glabrata ATCC 15126, Candida lipolytica PCM 2680-FY, and Candida tropicalis PCM 2709-FY strains were acquired from the Polish Collection of Microorganisms (PCM, Polish Academy of Sciences, Wrocław, Poland) and from the American Type Culture Collection (ATCC). All the strains were stored at −80 °C in Roti-Store cryo vials and before the tests were transferred into fresh Mueller–Hinton broth (MHB, Biocorp, Warsaw, Poland) for bacteria or RPMI-1640 (Sigma-Aldrich, Steinheim, Germany) for fungi and incubated for 24 h at 37 °C. Then, the cultures were seeded on Mueller–Hinton agar (BioMaxima, Lublin, Poland) or Sabouraud dextrose agar (SDA, BioMaxima, Lublin, Poland) plates, respectively, and incubated as just mentioned. These agar cultures were used for further microbiological assays. Cell densities for all assays were adjusted spectrophotometrically (Multiskan GO Microplate Spectrophotometer, Thermo Fisher Scientific, Vantaa, Finland) at 600 and 660 nm for bacteria and fungi, respectively.
(§3) The assay was performed to evaluate the effect of the lipopeptides in preventing biofilm formation. The preparation of inoculums was followed by a ca. 500-fold dilution of the 24 h cultures of microorganisms. Briefly, 50 μL of the compounds in the concentration range, diluted in appropriate medium, were prepared on 96-well polystyrene flat-bottom plates. Subsequently, the 50 μL of the bacterial/fungal inoculums were added to reach the same microbial density as that in the MBEC assay. After 24 h of incubation at 37 °C, the wells were rinsed three times with PBS and the fresh media with resazurin (4 g/L) were added. The MBICs were read after 1 h. All experiments were conducted in triplicate.

[6] = test system: Escherichia coli ATCC 25922; details: ATCC 25922, 24 h
Method: as §2, §3

[7] = test system: Candida lipolytica PCM 2680-FY; details: 24 h
Method: as §2, §3

[8] = test system: Staphylococcus epidermidis ATCC 14990; details: ATCC 14990, 24 h
Method: as §2, §3

[9] = test system: Candida albicans ATCC 10231; details: ATCC 10231, 24 h; remark: listed apart in the source
Method: as §2, §3

[10] = test system: Staphylococcus aureus ATCC 25923; details: ATCC 25923, 24 h
Method: as §2, §3

[11] = test system: Pseudomonas aeruginosa ATCC 9027; details: ATCC 9027, 24 h
Method: as §2, §3

[12] = test system: Candida glabrata ATCC 15126; details: ATCC 15126, 24 h
Method: as §2, §3

CCCCCCCCCCCCCCCC(=O)N[C@@H](CCCCN)C(=O)N[C@@H](CCCCN)C(=O)N[C@@H](CCCCN)C(N)=O [L1, C16-KKK-NH2]
HC50 [1]: 90.0 ± 6.5 µg/mL | MIC C. tropicalis [2]: 8 µg/mL (≈ 12.5 µM) | MIC S. epidermidis [3]: 8 µg/mL (≈ 12.5 µM) | MIC C. albicans [4]: 32 µg/mL (≈ 50 µM) | MBIC C. tropicalis [5]: 16 µg/mL | MBIC E. coli [6]: 32 µg/mL | MBIC C. lipolytica [7]: 32 µg/mL | MBIC S. epidermidis [8]: 16 µg/mL | MBIC C. albicans [9]: 128 µg/mL | MBIC S. aureus [10]: 32 µg/mL | MBIC P. aeruginosa [11]: 32 µg/mL | MBIC C. glabrata [12]: 128 µg/mL

CCCCCCCCCCCCCCCC(=O)N[C@H]1CSSC[C@@H](C(N)=O)NC(=O)[C@H](CCCCN)NC(=O)[C@H](CCCCN)NC(=O)[C@H](CCCNC(=N)N)NC(=O)[C@H](CCCCN)NC1=O [C4, C16-CKRKKC-NH2] (Palmitoyl-CKRKKC-NH2; disulfide 1-6)
HC50 [1]: 122.4 ± 16.5 µg/mL | MIC C. tropicalis [2]: 2 µg/mL (≈ 2 µM) | MIC S. epidermidis [3]: 8 µg/mL (≈ 8 µM) | MIC C. albicans [4]: 2 µg/mL (≈ 2 µM) | MBIC C. tropicalis [5]: 4 µg/mL | MBIC E. coli [6]: 32 µg/mL | MBIC C. lipolytica [7]: 4 µg/mL | MBIC S. epidermidis [8]: 8 µg/mL | MBIC C. albicans [9]: 8 µg/mL | MBIC S. aureus [10]: 16 µg/mL | MBIC P. aeruginosa [11]: 32 µg/mL | MBIC C. glabrata [12]: 16 µg/mL

CCCCCCCCCCCCCCCC(=O)N[C@@H](CCCNC(=N)N)C(=O)N[C@@H](CCCNC(=N)N)C(=O)N[C@@H](CCCCN)C(=O)N[C@@H](CCCCN)C(N)=O [L7, C16-RRKK-NH2] (Palmitoyl-RRKK-NH2)
HC50 [1]: 65.4 ± 1.5 µg/mL | MIC C. tropicalis [2]: 8 µg/mL (≈ 9.71 µM) | MIC S. epidermidis [3]: 4 µg/mL (≈ 4.85 µM) | MIC C. albicans [4]: 32 µg/mL (≈ 38.8 µM) | MBIC C. tropicalis [5]: 8 µg/mL | MBIC E. coli [6]: 32 µg/mL | MBIC C. lipolytica [7]: 16 µg/mL | MBIC S. epidermidis [8]: 16 µg/mL | MBIC C. albicans [9]: 32 µg/mL | MBIC S. aureus [10]: 16 µg/mL | MBIC P. aeruginosa [11]: 64 µg/mL | MBIC C. glabrata [12]: 32 µg/mL

CCCCCCCCCCCCCCCC(=O)N[C@H]1CSSC[C@@H](C(N)=O)NC(=O)[C@H](CCCNC(=N)N)NC(=O)[C@H](CCCCN)NC(=O)[C@H](CCCCN)NC(=O)[C@H](CCCCN)NC1=O [C6, C16-CKKKRC-NH2] (Palmitoyl-CKKKRC-NH2; disulfide 1-6)
HC50 [1]: 71.0 ± 6.4 µg/mL | MIC C. tropicalis [2]: 2 µg/mL (≈ 2 µM) | MIC S. epidermidis [3]: 8 µg/mL (≈ 8 µM) | MIC C. albicans [4]: 4 µg/mL (≈ 4 µM) | MBIC C. tropicalis [5]: 8 µg/mL | MBIC E. coli [6]: 64 µg/mL | MBIC C. lipolytica [7]: 8 µg/mL | MBIC S. epidermidis [8]: 8 µg/mL | MBIC C. albicans [9]: 16 µg/mL | MBIC S. aureus [10]: 32 µg/mL | MBIC P. aeruginosa [11]: 64 µg/mL | MBIC C. glabrata [12]: 8 µg/mL

CCCCCCCCCCCCCCCC(=O)N[C@@H](CCCCN)C(=O)N[C@@H](CCCCN)C(=O)N[C@@H](CCCCN)C(=O)N[C@@H](CCCCN)C(N)=O [L2, C16-KKKK-NH2] (Palmitoyl-KKKK-NH2)
HC50 [1]: 105.9 ± 8.0 µg/mL | MIC C. tropicalis [2]: 4 µg/mL (≈ 5.21 µM) | MIC S. epidermidis [3]: 8 µg/mL (≈ 10.4 µM) | MIC C. albicans [4]: 32 µg/mL (≈ 41.7 µM) | MBIC C. tropicalis [5]: 16 µg/mL | MBIC E. coli [6]: 32 µg/mL | MBIC C. lipolytica [7]: 32 µg/mL | MBIC S. epidermidis [8]: 16 µg/mL | MBIC C. albicans [9]: 128 µg/mL | MBIC S. aureus [10]: 32 µg/mL | MBIC P. aeruginosa [11]: 64 µg/mL | MBIC C. glabrata [12]: 128 µg/mL
